Measurements as given in patent publication US9522909B2, “Thiazolidinedione derivatives, preparation thereof and use thereof in cancer treatment” (UNIVERSITE DE LORRAINE, priority 2012, dated 2016).
Where a name gives a salt, the structure may show the parent alone.

Key:
[1] = test system: cryopreserved human hepatocytes (primary culture); test: Hepatocyte viability (MTT test) on suspended cryopreserved human hepatocytes; type: cell-based; settings: 90 minutes incubation, relative to non treated cells
Method: The hepatocyte viability corresponds to the percentage of surviving suspended human hepatocytes after 90 minutes of incubation with the compounds of the invention present at a concentration of […].
Hepatocyte viability was measured for different compounds according to the invention with cryopreserved human hepatocytes (primary culture) suspended and distributed in 96-well plates with a density of 0.1×10^6 cells per well, in a […] culture medium per well (DMEM+gentamycin (50 mg/L)+insulin (4 mg/L)+dexamethasone (1 μM)) in a CO2/air (5%/95%) humidified atmosphere at 37° C. After 30 minutes for attaining equilibrium, […] of culture medium containing the tested compounds (dissolved in DMSO) or of medium only containing DMSO (final concentration of 0.1%) were added with stirring at 900 rpm.
Cytotoxicity is evaluated with an MTT (Thiazolyl Blue Tetrazolium Bromide) test. The tested compounds or the DMSO are left to incubate for 90 minutes, and then 10 μL of MTT at 10 mg/10 mL are added per well for 30 mins. Next, the plates are centrifuged for 10 minutes at 2,000 g, the MTT is removed and some DMSO is added in an amount of 100 μL per well. The plates are gently shaked and then absorbance is measured at 595 nm by means of a spectrophotometric reader of micro-plates. The hepatocyte viability measured here corresponds to the percentage of surviving hepatocytes after 90 minutes of incubation with the compounds tested at a concentration of 100 μM, relatively to non treated cells.
The same tests were conducted for a concentration of compounds at 200 μM.
The tests were conducted in two distinct campaigns. In both cases, troglitazone (K) was used as a reference molecule.

[2] = test system: MCF7; test: Antiproliferative activity (MTS) on MCF7; type: cell-based, human; settings: for inhibition at 10 µM / IC50: Homo sapiens, MCF7, 72 hours; for inhibition at 10 µM: 10^-5 M, triplicate, read-out: percentage of inhibition of cell growth, MCF7; for IC50: averages of two independent values
Method: (§1) Antiproliferative activity was measured for different compounds according to the invention by analysis of cytoxicity at 10^−5M on diverse cancer cell lines in DMSO in triplicate. For certain molecules and certain lines, the same procedure was used for determining the IC50 values (the required concentration in μM for inhibiting by half the proliferation of the cells), by conducting cytotoxicity tests at concentrations from 0.005 μM to 100 μM in duplicate. The procedure is the following. The cells of the relevant line are sown in the suitable medium (see Table III) added with L-glutamine, with 10% (v/v) of fetal calf serum, 100 IU of penicillin, 100 μg/mL of streptomycin and 1.5 μg/mL of fungizone and maintained under 5% of CO2 at 37° C. 96-well plates are sown with the required number of cells per well (see Table III) in 200 μL of medium. 24 hours later, the chemical compounds to be investigated, dissolved in DMSO, are added and the media are maintained for 72 hours under these conditions with a set final concentration in DMSO (1%). The controls received an equal volume of DMSO. The number of viable cells is measured at 490 nm with the MTS reagent (Promega, Madison Wis.). The IC50s are calculated as the concentrations of compounds inducing 50% inhibition of cell proliferation.
(§2) Tables IV and V below indicate the percentage of inhibition of cell growth, i.e. the percentage of dead cells after treatment with a compound dose of 10^−5 M. The tests were conducted in triplicate.

[3] = test system: HCT116; test: Antiproliferative activity (MTS) on HCT116; type: cell-based; settings: Homo sapiens, HCT-116; 10^-5 M, 72 hours, triplicate; read-out: percentage of inhibition of cell growth, HCT116
Method: as §1, §2

[4] = test system: MDA231; test: Antiproliferative activity (MTS) on MDA231; type: cell-based, human; settings: for inhibition at 10 µM / IC50: Homo sapiens, MDA-MB-231, 72 hours; for inhibition at 10 µM: 10^-5 M, triplicate, read-out: percentage of inhibition of cell growth, MDA231; for IC50: averages of two independent values
Method: as §1, §2

[5] = test system: MDA435; test: Antiproliferative activity (MTS) on MDA435; type: cell-based; settings: Homo sapiens, 10^-5 M, 72 hours, triplicate, read-out: percentage of inhibition of cell growth, MDA435
Method: as §1, §2

[6] = test system: Mia-PaCa; test: Antiproliferative activity (MTS) on Mia-PaCa; type: cell-based; settings: Homo sapiens, MIA PaCa-2, 72 hours; for inhibition at 10 µM: 10^-5 M, triplicate, read-out: percentage of inhibition of cell growth, Mia-PaCa; for IC50: averages of two independent values
Method: as §1, §2

[7] = test system: HepG2; test: Antiproliferative activity (MTS) on HepG2; type: cell-based; settings: Homo sapiens, 72 hours; for inhibition at 10 µM: 10^-5 M, triplicate, read-out: percentage of inhibition of cell growth, HepG2; for IC50: averages of two independent values
Method: as §1, §2

[8] = test system: PC3; test: Antiproliferative activity (MTS) on PC3; type: cell-based; settings: Homo sapiens, PC-3; 10^-5 M, 72 hours, triplicate; read-out: percentage of inhibition of cell growth, PC3
Method: as §1, §2

[9] = test system: LNCaP; test: Antiproliferative activity (MTS) on LNCaP; type: cell-based; settings: Homo sapiens, 72 hours; for inhibition at 10 µM: 10^-5 M, triplicate, read-out: percentage of inhibition of cell growth, LNCaP; for IC50: averages of two independent values
Method: as §1, §2

| IC50 [2] [µM] | IC50 [6] [µM] | IC50 [7] [µM] | IC50 [9] [µM] | SMILES | Hepatocyte viability % (100 μM) ([1]; Table I campaign) [%] | Hepatocyte viability % (200 μM) ([1]; Table I campaign) [%] | inhibition at 10 µM [2] [%] | inhibition at 10 µM [3] [%] | inhibition at 10 µM [4] [%] | IC50 [4] [nM] | inhibition at 10 µM [5] [%] | inhibition at 10 µM [6] [%] | inhibition at 10 µM [7] [%] | inhibition at 10 µM [8] [%] | inhibition at 10 µM [9] [%] | Hepatocyte viability % (100 μM) ([1]; Table II campaign) [%] | Hepatocyte viability % (200 μM) ([1]; Table II campaign) [%] | activity on hormono-dependent breast cancer cells (MCF-7), in words [2] | activity on non-hormono-dependent breast cancer cells (MDA-231), in words [4] |
| --- | --- | --- | --- | --- | --- | --- | --- | --- | --- | --- | --- | --- | --- | --- | --- | --- | --- | --- | --- |
| 9.6 | 8.8 | 2.4 | 6.4 | Cc1c(C)c2c(c(C)c1CCCCCCNC(=O)OC(C)(C)C)CCC(C)(COc1ccc(/C=C3\SC(=O)NC3=O)cc1)O2 (racemic) [C, (±) Tert-butyl(6-{2-[4-(2,4-dioxo-thiazolidin-5-ylidenemethyl)-phenoxymethyl]-2,5,7,8-tetramethyl-chroman-6-yl}-hexyl)-carbamate] | 85 | 80 | 24 | 55 | 51 | 2100 | 39 | 30 | 77 | 26 | 68 |  |  |  |  |
| 0.9 | 0.6 | 1 | 1 | Cc1c(C)c2c(c(C)c1OC(=O)CCCCCCCN)CCC(C)(COc1ccc(/C=C3\SC(=O)N(C)C3=O)cc1)O2 (racemic) [Compound B, (±) 8-amino {2,5,7,8-tetramethyl-2-[4-(3-methyl-2,4-dioxo-thiazolidin-5-ylidenemethyl)-phenoxymethyl]-chroman-6-yl}octanoate trifluoroacetate] |  |  | 101 | 99 | 101 | 200 | 100 | 101 | 92 | 98 | 91 |  |  |  |  |
|  |  |  |  | CCN(CC)c1ccc2c(-c3ccc(NC(=S)NCCCCCCc4c(C)c(C)c5c(c4C)CCC(C)(COc4ccc(/C=C6\SC(=O)NC6=O)cc4)O5)cc3C(=O)O)c3ccc(=[N+](CC)CC)cc-3oc2c1 (racemic) [Compound Q, (±) (9-{2-carboxy-4-[3-(6-{2-[4-(2,4-dioxo-thiazolidin-5-ylidenemethyl)-phenoxy-methyl]-2,5,7,8-tetramethyl-chroman-6-yl}-hexyl)-thioureido]-phenyl}-6-diethylamino-xanthen-3-ylidene)-diethyl-ammonium] |  |  | 59 | 80 | 71 |  | 59 | 70 | 75 | 60 | 67 |  |  |  |  |
|  |  |  |  | Cc1c(C)c2c(c(C)c1OC(=O)OC(C)(C)C)CCC(C)(COc1ccc(C=C3SC(=O)N(C)C3=O)cc1)O2 (racemic) [F, (±) tertiobutyl(2,5,7,8-tetramethyl-2-[4-(3-methyl-2,4-dioxo-thiazolidin-5-ylidenemethyl)-phenoxymethyl]-chroman-6-yl)carbonate] |  |  |  |  |  |  |  |  |  |  |  | 81 | 66 |  |  |
| 3.4 | 1.3 | 5.7 | 6.1 | Cc1c(C)c2c(c(C)c1O)CCC(C)(CN1C(=O)S/C(=C\c3ccc(O)cc3)C1=O)O2 (racemic) [H, (±) 5-(4-hydroxy-benzylidene)-3-(6-hydroxy-2,5,7,8-tetramethyl-chroman-2-ylmethyl)-thiazolidine-2,4-dione] |  |  | 95 | 95 | 95 | 1900 | 87 | 102 | 79 | 64 | 51 | 110 | 103 |  |  |
| 52.6 | 24.5 | 20.4 | 17.4 | Cc1c(C)c2c(c(C)c1O)CCC(C)(COc1ccc(/C=C3\SC(=O)N(C)C3=O)cc1)O2 (racemic) [J, (±) 5-[4-(6-Hydroxy-2,5,7,8-tetramethyl-chroman-2-ylmethoxy)-benzylidene]-3-methyl-thiazolidine-2,4-dione] |  |  | 0 | 32 | 36 | 4900 | 5 | 20 | 40 | 14 | 33 | 120 | 120 | inactive | active |
| 5.2 | 4.8 | 10.1 | 19.4 | O=C1S/C(=C\c2ccc(O)cc2)C(=O)N1C/C=C/c1ccccc1 [Compound A, 5-(4-hydroxy-benzylidene)-3-(3-phenyl-allyl)-thiazolidine-2,4-dione] | 89 | 63 | 65 | 83 | 91 | 2200 | 82 | 84 | 59 | 43 | 37 |  |  |  |  |
|  |  |  |  | Cc1c(C)c2c(c(C)c1O)CCC(C)(COc1ccc(/C=C3\SC(=O)N(Cc4ccccc4)C3=O)cc1)O2 (stereo not drawn) [G] |  |  |  |  |  |  |  |  |  |  |  | 87 | 63 |  |  |
|  |  |  |  | Cc1c(C)c2c(c(C)c1O)CCC(C)(COc1ccc(CC3SC(=O)NC3=O)cc1)O2 (stereo not drawn) [K, troglitazone, reference compound] | 79 | 30 | 3 | 9 | 12 |  | 12 | 2 | 14 | 14 | 17 | 52 | 22 |  |  |
| 9.3 | 8.1 | 8.8 | 1.8 | CC1(CN2C(=O)S/C(=C\c3cc(Br)c(O)c(Br)c3)C2=O)CCCCC1 [L, reference compound] | 42 | 30 | 76 | 87 | 53 | 5700 | 69 | 65 | 74 | 47 | 81 |  |  |  |  |
